Assays:
Format in all cases: cell-based
[1] = test system: HIV‐1 LTR chromatin (Jurkat^Tat LTR‐DsRed clone #11); assay: ChIP of histone H3K9 modifications at the HIV‐1 LTR
Procedure: To characterize induction of HIV‐1 expression caused by PH02 in more detail, we employed chromatin immunoprecipitation (ChIP) assays to examine changes at the LTR promoter using Jurkat^Tat LTR‐DsRed clone #11.
(§1) Figure 6 Effect of PH02 on histone modification at HIV‐1 LTR and global histone modification • Chromatin immunoprecipitation assays were performed using Jurkat^Tat LTR‐DsRed, clone 11. The cells were treated for 24 h with PH02 and/or PEP005, and ChIP was performed using antibodies against histone H3K9‐me3 (left panel) and histone H3K9‐ac (right panel). The results are presented relative to ChIP with antihistone H3 antibodies. The results are determined from three biological replicates (n = 3). Statistical significance, as determined by ratio paired t‐test, is indicated as follows: ***P < 0.0005; ****P < 0.00005. The exact P‐values are indicated in Appendix Table S1. • Western blot analysis was performed using Jurkat^Tat LTR‐DsRed, clone 11, to detect the expression of SP1, NF‐κB p65, IκBα, total H3K9‐me3, and H3K9ac. The cells were treated for 24 h with PH02 and/or PEP005. Source data are available online for this figure.
Jurkat^Tat LTR‐DsRed cells, clone #11, were treated with 3 μM PH02 and/or 10 nM PEP005, for 24 h, and the cells cross‐linked with 1% formaldehyde for 10 min at RT. The cells were resuspended in cold NP‐40 lysis buffer (0.5% NP‐40, 10 mM Tris–HCl pH 7.8, 3 mM MgCl2) containing freshly added protease inhibitor cocktail (PIC, Sigma‐Aldrich) and spun to collect nuclei. The nuclei were sonicated in buffer containing 10 mM Tris–HCl (pH 7.8), 10 mM EDTA, and 0.5% SDS to obtain DNA fragments of 200–2,000 bp using a Bioruptor sonicator (Diagenode). The chromatin fractions were precleared with protein A/G agarose beads (Millipore) and immune‐precipitated with anti‐H3K9‐me3, anti‐H3K9‐ac, or anti‐H3 antibodies (Abcam) according to the manufacturer's instructions. Cross‐links were reversed by incubating the samples at 68°C for 2 h, and DNA was purified using QIAquick PCR columns and assayed by qPCR using primers specific to the HIV‐1 LTR core promoter, AGTGGCGAGCCCTCAGAT, and […]. Results are presented as normalized relative to that for histone H3 immunoprecipitates.

[2] = test system: SP1, NF‐κB p65, IκBα, total H3K9‐me3 and H3K9ac in Jurkat^Tat reporter cells; assay: Western blot of SP1, NF‐κB p65, IκBα and global H3K9 modifications
Procedure: as §1
Figure EV3 Effect of PH compounds on SP1, NF‐κB p65, and IκBα expression Jurkat^Tat LTR‐Luciferase cells were treated with a single concentration (3 μM) of each PH compound for the indicated time points. Whole‐cell protein extract was separated by SDS–PAGE, transferred to nitrocellulose membrane, and blotted with antibodies against SP1, NF‐κB p65, and IκBα. GAPDH was used as the loading control. Source data are available online for this figure.
5 × 10^6 luciferase reporter cells/Jurkat^Tat LTR‐DsRed, clone 11, were treated with the indicated concentration of the compounds. After treatment, the cells were lysed in RIPA buffer (50 mM Tris–HCl, pH 8.0, 150 mM NaCl, 1% NP‐40, 0.5% sodium deoxycholate, 0.1% SDS), supplemented with 1× protease inhibitor cocktail and 1 mM DTT, to collect the whole‐cell protein extract, which was further quantified using Bradford assay. A 30 μg equivalent of the protein extract was mixed with the 5× SDS–PAGE sample buffer and boiled for 5 min, and then, it was separated using 12% SDS–PAGE gel and transferred to a nitrocellulose membrane. […]

[3] = test system: replication‐competent HIV‐1 provirus in CD4^+ T cells from HIV‐1‐infected patients; assay: Quantitative viral outgrowth assay (qVOA)
Procedure: However, 1 nM PEP005 in combination with 1 μM PH02 produced a significant response that was double that produced by 1 μM PH02 on its own (Fig 10A). We confirmed this effect using a quantitative viral outgrowth assay (qVOA) with pools of CD4^+ T cells isolated from HIV‐1‐infected patient samples (Fig EV5, Appendix Table S5). […] We conclude that this combination of treatments may represent a promising candidate therapy to target persistent latent viral infection.
Figure EV5 Assay for reactivation of HIV‐1 from latently infected cells using a quantitative viral outgrowth assay Resting CD4^+ T cells from patient samples were serially diluted in 6‐ or 24‐well plates in duplicate (top) and treated as indicated (left). After 24 h, MOLT4/CCR5 cells were added to the wells, and the cultures incubated a further 14 days. HIV‐1 RNA was detected in filtered culture supernatants using RT–qPCR, and wells producing the specific PCR product are indicated in green. […]
For quantitative viral outgrowth assays (qVOA), serial dilutions of CD4^+ T lymphocytes from pooled HIV‐infected patients were plated in 6‐ or 24‐well plates (1 × 10^6 cells or < 1 × 10^6 cells, respectively). […] Viral RNA was isolated from the culture supernatants and analyzed as described above. […]

[4] = single treatment, 3 μM PH02 or 10 nM PEP005, 24 h
[5] = Jurkat^Tat LTR‐DsRed clone 11, 24 h

C/C=C(/C)C(=O)O[C@H]1C(C)=C[C@]23C(=O)[C@@H](C=C(CO)[C@@H](O)[C@]12O)[C@H]1[C@@H](C[C@H]3C)C1(C)C [PEP005, ingenol‐3‐angelate, reference compound]
H3K9 acetylation on the LTR [1, 4]: accumulation of H3K9 acetylation
H3K9‐3me at the LTR relative to total histone H3 [1, 4]: a similar effect was observed
IκBα level ([2]; Jurkat^Tat LTR‐DsRed clone 11, 24‐h treatment, alone or with PH02): causes loss of IκBα
reactivation of virus ([3]; 1 nM PEP005 alone, 24 h): did not produce reactivation of virus

CC(=O)Oc1ccccc1N(C=C1Sc2ccccc2C1=O)C(C)=O [PH02, 2‐{acetyl[(3‐oxo‐1‐benzothien‐2(3H)‐ylidene)methyl]amino}phenyl acetate]
H3K9 acetylation on the LTR ([1]; 3 μM PH02 + 10 nM PEP005, 24 h): significant elevation
H3K9‐3me at the LTR relative to total histone H3 ([1]; 3 μM PH02 + 10 nM PEP005, 24 h, versus either drug separately): equivalent reduction
H3K9 acetylation on the LTR [1, 4]: accumulation of H3K9 acetylation
H3K9‐3me at the LTR relative to total histone H3 [1, 4]: significantly reduced
expression of NF‐κB p65 and SP1 [2, 5]: mostly unaffected
global acetylation or methylation of lysine 9 on H3 [2, 5]: do not observe a significant effect
virus replication ([3]; 1 μM PH02 + 1 nM PEP005, 24 h): produced significant virus replication

From article PMC5838563, “Compounds producing an effective combinatorial regimen for disruption of HIV‐1 latency” (EMBO Molecular Medicine, 2017)
